The values that follow come from paper PMC10535741, “Styrylpyridinium Derivatives for Fluorescent Cell Imaging” (Pharmaceuticals, 2023).

The subject of the data set is NIH3T3 (mouse fibroblast) cell line. Description: Basal cytotoxicity, neutral red uptake (NRU) assay, with LD50 estimated from IC50. Type of data set: cell-based. The method, then: The evaluation of the in vitro cytotoxicity (IC50, half maximal inhibitory concentration) of the abovementioned compounds and their structural derivatives was assessed using the standard colorimetric 3-(4,5-dimethylthiazol-2-yl)-2,5-diphenyltetrazolium bromide (MTT) assay on two monolayer tumour cell lines, namely HT-1080 (human connective tissue fibrosarcoma) and MH-22A (mouse hepatocarcinoma). Additionally, the impact of the compound on non-cancerous “normal” cells—mouse fibroblasts (NIH3T3)—was estimated in order to measure the basal toxicity (LD50, median lethal dose). The obtained results were used for investigation of the structure–activity relationships and exploration of the effect of substituents on cellular response and toxicity. The estimated LD50 gives information regarding the compound properties and could potentially be used to select promising compounds by providing a starting dose for in vivo experiments.
To assess basal cytotoxicity, the neutral red uptake (NRU) assay was conducted following a modified version of the standard protocol of Stokes’ [71], as validated by the NICEATM-ECVAM study. The NRU cytotoxicity assay determines the ability of viable cells to incorporate and bind a supravital dye, neutral red (NR).
NIH3T3 cells (9000 cells/well) were cultured in 96-well plates in DMEM medium supplemented with 5% FBS for 24 h. Subsequently, the cells were exposed to the test compounds over a range of seven concentrations (1000 µg/mL, 316 µg/mL, 100 µg/mL, 31 µg/mL, 10 µg/mL, 3.0 µg/mL, and 1.0 µg/mL) for 24 h. Untreated cells were used as a control. After the incubation period, the medium was removed from all plates and a solution of NR was added (250 µL, 0.05 mg/mL NR in DMEM 24 h pre-incubated at 37 °C and then filtered before use through a 0.22 µm syringe filter). The plates were incubated for 3 h, followed by three washes with phosphate-buffered saline (PBS). The cells were then treated with a mixture of ethanol (50%) and water (49%) supplemented with 1% acetic acid. The absorbance of NR was measured using a spectrophotometer multiplate reader (Infinite M1000; Tecan Austria GmbH, Salzburg, Austria) at 540 nm. The optical density (OD) was then calculated using the following formula: ODtreated cells×100/ODcontrol cells.
The IC50 values were calculated using the program Graph Pad Prism® 3.0.
In vitro test results were employed to estimate the starting dose for acute oral systemic toxicity tests in rodents (LD50). The LD50 value was calculated using the in vitro IC50 value and a following formula: logLD50(mM/kg)=0.439×logIC50(mM)+0.621
The value was then converted to mg/kg and the compounds classified into four toxicity categories. Category 1 (highly toxic): LD50 ≤ 5 mg/kg; Category 2 (moderately toxic): 5 < LD50 ≤ 50 mg/kg; Category 3 (slightly toxic): 50 < LD50 ≤ 300 mg/kg; Category 4 (practically non-toxic): 300 < LD50 ≤ 2000 mg/kg.

Take `CCCCCCCCCCCC[n+]1ccc(C=Cc2cc(OC)c(OC)c(OC)c2)cc1.[Br-]` [Compound 6a, 4-(3,4,5-trimethoxystyryl)-N-dodecylpyridinium bromide]: the “times decrease of basal toxicity of 6a compared with 6d” value (ratio of LD50 values) is recorded as 1.5 times.

For the molecule `CCCCCCCCCCCCCCCC[n+]1ccc(C=Cc2cc(OC)c(OC)c(OC)c2)cc1.[Br-]` [Compound 6b], the “times more toxic than 6a, basal toxicity” value is recorded as 2.8 times. Besides, the “Basal cytotoxicity (NIH3T3) LD50” value (estimated from in vitro NRU IC50 (24 h) by log LD50 = 0.439 x log IC50 + 0.621) is on record as 91 ± 6 mg/kg. The “Basal cytotoxicity (NIH3T3) LD50” value (mouse) is reported as 0.15 mM/kg. For `CCCCCCCCCCCC[n+]1ccc(C=Cc2cc3c4c(c2)CCCN4CCC3)cc1.[Br-]` [Compound 6d, 1-dodecyl-4-(2-(2,3,6,7-tetrahydro-1H,5H-pyrido[3,2,1-ij]quinolin-9-yl)vinyl)pyridin-1-ium bromide], the “times higher basal cytotoxicity than compound 7a” value (6d versus 7a) was 6.5 times.

Take `CCCCCCCCCCCCCCCC[n+]1ccc(C=CC=Cc2cc3c4c(c2)CCCN4CCC3)cc1.[Br-]` [Compound 6e, 1-hexadecyl-4-(4-(2,3,6,7-tetrahydro-1H,5H-pyrido[3,2,1-ij]quinolin-9-yl)buta-1,3-dien-1-yl)pyridin-1-ium bromide]: under “6e versus 6d”, the “times lower basal cytotoxicity than 6d” value is listed as ~ 2.8 times. Moreover, the “basal toxicity classification in words” value (from estimated LD50, NIH3T3) is listed as “harmful”.
